From patent US11427575B2, “Antitumor compound for activating JWA gene and degrading HER2, preparation method thereof, and application thereof” (SIMCERE PHARMACEUTICAL CO., LTD., priority 2019, dated 2022) come the findings set out here.

In data set [1] the test system is JWA protein. The data set is described as follows: Western blot of subcutaneous BT474 tumors, JWA. To be noted: treatment group. Format: in vivo, BALB/c nude mice. A general note: Immunoblotting shows a protein as a band on a membrane.
The conditions of data set [2]: H&E staining, tumor-bearing nude mice. An excerpt: A model of nude mice subcutaneously transplanted with human breast cancer cells was built with reference to the method of Example 16. The laboratory mice that have been modeled were anesthetized and euthanized to observe and determine whether damage occurred to the major organs of laboratory mice. The major organs tissues from the laboratory mice, such as heart, liver, spleen, lung, kidney, and brain, were fixed in formalin solution using conventional methods. After paraffin embedding and tissue sectioning, the thick tissue sections were stained with H&E to observe whether the organ tissues were normal in morphology.

Data set [3] has as its system HER2 protein. The data set is described as follows: Western blot in HER2-positive breast cancer cells, HER2. The class given is cell-based, human. Conditions: increasing concentration, 24 h. The procedure:
The cells in the logarithmic growth phase were routinely digested, and transferred into 6-well plates at the cell density of 40%-50%. The cells were incubated with different concentrations of JAC1 for 24 h, followed by an addition of 0.1 mL of Radioimmunoprecipitation Assay Butter (RIPA, containing 0.5% phenylmethylsulfonyl fluoride (PMSF)) for protein extraction. After centrifugation at 12,000×g for 15 min, the supernatant was collected, and brought to a determination of protein concentration and a boil. Protein electrophoresis was performed with 10% polyacrylamide gel. The protein was transferred into the gel wells for 40 μg protein per well, migrated at 60 V for 30 min, and 90 V for 1.5-2 h. After gel electrophoresis, the protein was transferred by wet method from gel to a PVDF membrane, and blocked with 5% skim milk at room temperature for 1-2 h. The membrane was washed with Tris-Buffered Saline and Tween 20 (TBST, containing 0.1% Tween 20) three times for 5 min each, and incubated in the corresponding primary antibody overnight at 4° C. The membrane was then washed with the TBST (containing 0.1% Tween 20) three times for 5 min each, incubated in the secondary antibody at room temperature for 1-2 h, and washed with the TBST (containing 0.1% Tween 20) eight times for 5 min each. […]

The subject of data set [4] is JWA protein. The data set is described as follows: Laser confocal immunofluorescence in HER2-positive breast cancer cells, JWA. To be noted: immunofluorescence, 0, 1, 10 μM, 24 h. The class given is cell-based, human. The procedure:
The cells were inoculated into a 35 mm glass bottom dish, treated with different concentrations (0, 1, and 10 μM) of JAC1 for 24 h, fixed with methanol for 15 min, washed three times with PBST, blocked with normal sheep serum for 1 h, and incubated in primary antibody overnight at 4° C. The cells were then washed three times with PBST, incubated in fluorescent secondary antibody and 4′,6-diamidino-2-phenylindole (DAPI), and photographed using a laser confocal scanning microscopy.

Data set [5] has as its system SKBR3 cells. To be noted: SKBR3, Transwell, 0, 1, and 10 μL of JAC1, 12 h. The procedure: (§1) BT474 and SKBR3 cells in the logarithmic growth phase were transferred into six-well plates at the cell density of 40%-50%. After the cells adhered to the walls of the plates, the cells were respectively incubated in […] of JAC1. Spreading gel in Transwell chamber: the day before the assay, a 24-well plate and a plurality of Transwell chambers were prepared, and 1 mg/mL fibronectin (FN) mother liquor was diluted 10 times to a final concentration of 100 μg/mL. The bottom of each Transwell chamber was coated with 50 μL of FN, placed on a clean bench to air-dry for 2 h, and cultured in an incubator overnight.
(§2) On the day of the assay, the cultured cells were digested with 0.25% trypsin and resuspended in a serum-free medium in which the number of the cells were counted and the cell density was adjusted to 3×10^5 cells/mL. 100 μL of serum-free medium containing the cells was transferred onto the upper layer of each Transwell chamber, and 600 μL of mixture containing 10% FBS and 100 ng/mL EGF medium was added to the lower layer of each Transwell chamber. After incubation in an incubator for 12 h, the Transwell chambers were taken out, fixed with 95% methanol for 20 min, washed three times with phosphate-buffered saline (PBS), stained with crystal violet dye for 30 min, and washed three times with PBS. […]

For data set [6], the system named is BT474 cells. To be noted: BT474, Transwell, 0, 1, and 10 μL of JAC1, 12 h. The procedure:
as §1, §2

Data set [7] relates to HER2 protein. The data set is described as follows: Western blot of subcutaneous BT474 tumors, HER2. The class given is in vivo, BALB/c nude mice. To be noted: treatment group. The procedure: BT474 human breast cancer cells in the logarithmic growth phase were suspended in ice-cold suspension buffer for a final concentration of 5×10^6/100 μL, followed by subcutaneous transplantations of the suspended cells into BALB/c nude mice. When the tumor grown up to 75-125 mm^3, the BALB/c nude mice were randomly divided into five equal groups, including a blank control group (Mock), a solvent control group (Vehicle), a 50 mg/kg JAC1 treatment group, a 100 mg/kg JAC1 treatment group, and a positive control group treated with Pacilitaxel and Trastuzumab (TH). Dose and administration: JAC1 was injected intraperitoneally into mice once daily; the dosage of Trastuzumab was 10 mg/kg injected intraperitoneally twice a week; the dosage of Pacilitaxel was 20 mg/kg injected intraperitoneally once a week. From the day of administration, mouse body weights and tumor diameters were measured every other 2 days, and the tumor volume was calculated using an equation. When the mice reached a humane endpoint at which the tumor volume increased to 2500-3000 mm^3, the research based on the mouse models was terminated and the laboratory mice were anesthetized and euthanized in a timely manner to alleviate animal suffering and perform the statistical analysis. […]

In data set [8] the test system is HER2 protein. The data set is described as follows: Western blot in BGC823 gastric cancer cells (JWA WT and JWA KO), HER2. Format: cell-based, human. Conditions: 10 μM, 48 h. An excerpt: A HER2-positive BGC823 human gastric cancer cell line was established in which JWA gene was deleted using Crisp/cas9 technology. […] After protein extraction, western blotting technology was used to determine the expression levels of JWA and HER2 proteins in the wild-type cell line (JWA WT) and the JWA-knockout cell line (JWA KO).

Data set [9] relates to BT474 cells. Conditions: BT474, 1 and 10 μM, 10-15 d, vs control. The procedure:
Two human breast cancer cell lines BT474 and SKBR3 were incubated in DMEM medium containing, respectively, 20% and 10% fetal bovine serum (FBS), conventional double-antibody, and were placed in a 37° C. incubator with 5% CO2. The BT474 and SKBR3 cells in the logarithmic growth phase were transferred into 6-well plates for 800 cells per well. After the cells adhered to the walls of the plates, the cells were cultured in the medium containing different concentrations (0, 1, and 10 μM) of JAC1, respectively. By observing the formation of each cell colony, the cells were continued to be cultured for 10-15 d, followed by removal of medium. After fixation with methanol and photographing, the number of the cell colonies (each containing more than 50 cells) was counted using the software ImageJ, and the computer program SPSS is used for statistical analysis.

For `COc1cccc2sc(Nc3nc4c(F)cccc4s3)nc12` [JAC1, 4-fluoro-N-(4-methoxybenzene (d)thiazole-2-group) benzene (d) thiazole-2-amine], the “JWA protein level in tumor” value in data set [1] is “significantly increased”. Further, in data set [2], the “morphology of major organs (heart, liver, spleen, lung, kidney, brain)” value is reported as “no obvious anomalies were observed”. Further, the HER2 protein level result in data set [3] is on record as “HER2 protein level decreases”. For the same compound, the JWA protein level entry in [4] is reported as “JWA protein level increased”. The migratory ability entry in [5] and in data set [6] was “effectively inhibit the migratory ability” in each case. Moreover, in data set [7], the “HER2 protein level in tumor” value was “repressed significantly”. In data set [8] (BGC823 JWA KO), the HER2 expression level result is recorded as “no effect”. In data set [8] (BGC823 JWA WT), the HER2 expression entry is “repress HER2 expression”. Besides, in data set [9], the colony-forming ability result was “significantly reduce the colony-forming ability”.
